Data on 60 molecules can be found in US20050004163A1, “3-(diarylmethylene)-8-azabicyclo[3.2.1]octane derivatives” (priority 2000, published 2005).

In the first test the target is T1, μ-opioid receptor (Rattus norvegicus, UniProt P33535).
T1 construct: the forebrains are homogenized in Tris buffer in a Teflon®-glass homogenizer; from tissue; host or cells: forebrain of male Wistar rats (particulate membrane preparation)
T1 sequence (P33535 whole entry): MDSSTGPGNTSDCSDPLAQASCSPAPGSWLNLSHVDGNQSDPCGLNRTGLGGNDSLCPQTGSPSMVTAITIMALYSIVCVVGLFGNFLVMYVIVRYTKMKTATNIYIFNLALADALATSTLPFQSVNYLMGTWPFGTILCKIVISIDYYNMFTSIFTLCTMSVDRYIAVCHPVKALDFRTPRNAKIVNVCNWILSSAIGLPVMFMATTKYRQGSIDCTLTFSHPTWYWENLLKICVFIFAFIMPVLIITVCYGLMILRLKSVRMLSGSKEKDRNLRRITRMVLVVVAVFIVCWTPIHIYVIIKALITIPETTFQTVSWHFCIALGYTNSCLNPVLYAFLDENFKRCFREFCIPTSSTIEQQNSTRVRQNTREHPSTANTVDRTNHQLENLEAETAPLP
Kind of test: Rat brain μ-opioid receptor binding assay ([3H]DAMGO). The following applies: 10 nM solutions of the compounds, read-out: MOR binding Ki. On the procedure: Rat Brain μ-Opioid Receptor Binding Assay
Male, Wistar rats (150-250 g, VAF, Charles River, Kingston, N.Y.) are killed by cervical dislocation and their brains removed and placed immediately in ice cold Tris HCl buffer (50 mM, pH 7.4). The forebrains are separated from the remainder of the brain by a coronal transection, beginning dorsally at the colliculi and passing ventrally through the midbrain-pontine junction. After dissection, the forebrains are homogenized in Tris buffer in a Teflon®-glass homogenizer. The homogenate is diluted to a concentration of 1 g of forebrain tissue per 100 mL Tris buffer and centrifuged at 39,000×G for 10 min. The pellet is resuspended in the same volume of Tris buffer with several brief pulses from a Polytron homogenizer. This particulate preparation is used for the μ-opioid binding assays. […] The tubes and filters are rinsed three times with 4 mL of 10 mM HEPES (pH 7.4) and the radioactivity associated with the filter circles determined using Formula 989 scintillation fluid (New England Nuclear, Boston, Mass.) in a scintillation counter.
The data are used to calculate either the % inhibition compared to control binding (when only a single concentration of test compound is evaluated) or a Ki value (when a range of concentrations is tested).
% Inhibition is calculated as follows: [formula]
Ki value is calculated using the LIGAND (Munson, P. J. and Rodbard, D., Anal. Biochem. 107: 220-239, 1980) data analysis program.
For the molecule `CCNC(=O)c1ccc(C(=C2CC3CCC(C2)N3Cc2ccc(C(=O)O)o2)c2ccccc2)cc1` [Cpd 95], the Ki was found to be 0.421 µM.
The same measure, in the same setting: with `CCNC(=O)c1ccc(C(=C2CC3CCC(C2)N3Cc2ccco2)c2ccc(C(=O)O)cc2)cc1` [Cpd 96] the figure was 0.0635 µM; with `CCNC(=O)c1ccc(C(=C2CC3CCC(C2)N3Cc2ccco2)c2ccc([N+](=O)[O-])cc2)cc1` [Cpd 123], 0.0342 µM.
Same read-out and setting: with `CCNC(=O)c1ccc(C(=C2CC3CCC(C2)N3Cc2ccoc2)c2ccc([N+](=O)[O-])cc2)cc1` [Cpd 126] the figure was 0.00145 µM; with `CCNC(=O)c1ccc(C(=C2CC3CCC(C2)N3CCc2ccccc2)c2ccc(CCC(=O)O)cc2)cc1` [Cpd 135], 0.318 µM.
Still for that read-out and setting: to `CCNC(=O)c1ccc(C(=C2CC3CCC(C2)N3CC=C(C)C)c2nnn[nH]2)cc1` [Cpd 147] belongs 0.109 µM.

The test is the same for the next values; noted with them: MOR binding Ki.
For the molecule `CCNC(=O)c1ccc(C(=C2CC3CCC(C2)N3CCN2CCN(C(=O)OC)CC2)c2ccccc2)cc1` [Cpd 91, 4-(2-{3-[(4-Ethylcarbamoylphenyl)-phenylmethylene]-8-azabicyclo[3.2.1]oct-8-yl}-ethyl)piperazine-1-carboxylic acid methyl ester], the Ki amounted to 0.175 µM.
The molecule `CCNC(=O)c1ccc(C(=C2CC3CCC(C2)N3Cc2cccc(C(=O)O)c2)c2ccccc2)cc1` [Cpd 93] had a Ki of 0.28 µM.
Same read-out and setting: to `CCNC(=O)c1ccc(C(=C2CC3CCC(C2)N3Cc2ccc(C(=O)O)cc2)c2ccccc2)cc1` [Cpd 94] belongs 0.322 µM.
Same read-out and setting: with `CCNC(=O)c1ccc(C(=C2CC3CCC(C2)N3Cc2ccoc2)c2ccc(C(=O)O)cc2)cc1` [Cpd 97] the figure was 0.0119 µM; with `CCNC(=O)c1ccc(C(=C2CC3CCC(C2)N3Cc2ccccn2)c2ccc(C(=O)O)cc2)cc1` [Cpd 98], 0.203 µM.
`CCNC(=O)c1ccc(C(=C2CC3CCC(C2)N3CCc2ccccc2)c2ccc(C(=O)O)cc2)cc1` [Cpd 99] displayed a Ki of 5.29 µM.
With `CCNC(=O)c1ccc(C(=C2CC3CCC(C2)N3Cc2ccc3ccccc3n2)c2ccc(C(=O)O)cc2)cc1` [Cpd 100], affinity was put at a Ki of 0.147 µM.
In turn, `CCNC(=O)c1ccc(C(=C2CC3CCC(C2)N3Cc2ccc3ccccc3n2)c2cncnc2)cc1` [Cpd 101] had a Ki of 0.113 µM.
As to `CCNC(=O)c1ccc(C(=C2CC3CCC(C2)N3Cc2nccs2)c2cccc(C(=O)O)c2)cc1` [Cpd 102], the Ki worked out at 1.32 µM.
In turn, `CNC(=O)c1ccc(C=C2CC3CCC(C2)N3CC2CC2)cc1` [Cpd 105] had a Ki of 5.62 µM.
Molecule `CCNC(=O)c1ccc(C=C2CC3CCC(C2)N3CCC(C#N)(c2ccccc2)c2ccccc2)cc1` [Cpd 106, 4-[8-(3-Cyano-3,3-diphenylpropyl)-8-aza-bicyclo[3.2.1]oct-3-ylidenemethyl]-N-ethyl-benzamide] came in with a Ki of 0.0536 µM.
Still for that read-out and setting: with `CCNC(=O)c1ccc(C(=C2CC3CCC(C2)N3Cc2ccco2)c2cc(N)cc(C(=O)O)c2)cc1` [Cpd 108] the figure was 10 µM; with `CCNC(=O)c1ccc(C(=C2CC3CCC(C2)N3Cc2ccoc2)c2cc(N)cc(C(=O)O)c2)cc1` [Cpd 110], 9.14 µM.
`CCNC(=O)c1ccc(C(=C2CC3CCC(C2)N3Cc2ccccn2)c2cc(N)cc(C(=O)O)c2)cc1` [Cpd 112] yielded a Ki of 10 µM.
The same measure, in the same setting: with `CCNC(=O)c1ccc(/C(=C2\C[C@H]3CC[C@@H](C2)N3Cc2ccccn2)c2ccc(C(=O)N(C)C)cc2)cc1` [Cpd 113, N-Ethyl-4-[N′,N′-dimethylbenzamide-(8-pyridin-2-ylmethyl-8-aza-bicyclo[3.2.1]oct-3-ylidene)-methyl]-benzamide] the figure was 0.0367 µM; with `CCNC(=O)c1ccc(C(=C2CC3CCC(C2)N3CC=C(C)C)c2cc(N)cc(C(=O)O)c2)cc1` [Cpd 114], 4.83 µM.
Same read-out and setting: to `CCNC(=O)c1ccc(C(=C2CC3CCC(C2)N3CCc2ccccc2)c2cc(N)cc(C(=O)O)c2)cc1` [Cpd 116] belongs 1.51 µM; to `CCNC(=O)c1ccc(C(=C2CC3CCC(C2)N3Cc2nccs2)c2cc(N)cc(C(=O)O)c2)cc1` [Cpd 118], 10 µM.
On the same count and under the same terms, to `CCNC(=O)c1ccc(C(=C2CC3CCC(C2)N3Cc2cccs2)c2cc(N)cc(C(=O)O)c2)cc1` [Cpd 120] belongs 5.36 µM; to `CCNC(=O)c1ccc(C(=C2CC3CCC(C2)N3Cc2ccco2)c2ccc(CC(N)C(=O)O)cc2)cc1` (stereo not drawn) [Cpd 124], 0.0946 µM.
Molecule `CCNC(=O)c1ccc(C(=C2CC3CCC(C2)N3Cc2ccco2)c2ccc(CCC(=O)O)cc2)cc1` [Cpd 125] registered a Ki of 0.0476 µM.
The same measure, in the same setting: with `CCNC(=O)c1ccc(C(=C2CC3CCC(C2)N3Cc2ccoc2)c2ccc(CCC(=O)O)cc2)cc1` [Cpd 127] the figure was 0.00296 µM; with `CCNC(=O)c1ccc(C(=C2CC3CCC(C2)N3Cc2ccsc2)c2ccc([N+](=O)[O-])cc2)cc1` [Cpd 128], 0.00427 µM; with `CCNC(=O)c1ccc(C(=C2CC3CCC(C2)N3Cc2ccsc2)c2ccc(CCC(=O)O)cc2)cc1` [Cpd 129], 0.00673 µM.
Still for that read-out and setting: to `CCNC(=O)c1ccc(C(=C2CC3CCC(C2)N3Cc2nccs2)c2ccc([N+](=O)[O-])cc2)cc1` [Cpd 130] belongs 0.221 µM; to `CCNC(=O)c1ccc(C(=C2CC3CCC(C2)N3Cc2nccs2)c2ccc(CC(N)C(=O)O)cc2)cc1` (stereo not drawn) [Cpd 131], 0.152 µM.
Consider `CCNC(=O)c1ccc(C(=C2CC3CCC(C2)N3Cc2nccs2)c2ccc(CCC(=O)O)cc2)cc1` [Cpd 132], for which the affinity corresponds to a Ki of 0.164 µM.
Consider `CCNC(=O)c1ccc(C=C2CC3CCC(C2)N3Cc2nccs2)cc1` [Cpd 133], for which the affinity, expressed as Ki, was 0.581 µM.
The molecule `CCNC(=O)c1ccc(C(=C2CC3CCC(C2)N3CCc2ccccc2)c2ccc([N+](=O)[O-])cc2)cc1` [Cpd 134] yielded an inhibition constant (Ki) of 0.00757 µM.
Same read-out and setting: to `CCNC(=O)c1ccc(C(=C2CC3CCC(C2)N3CC=C(C)C)c2ccc([N+](=O)[O-])cc2)cc1` [Cpd 136] belongs 0.00303 µM; to `CCNC(=O)c1ccc(C(=C2CC3CCC(C2)N3CC=C(C)C)c2ccc(CCC(=O)O)cc2)cc1` [Cpd 137], 0.00974 µM.
The same measure, in the same setting: to `CCNC(=O)c1ccc(C(=C2CC3CCC(C2)N3Cc2ccoc2)c2ccc(S(N)(=O)=O)cc2)cc1` [Cpd 138] belongs 0.0495 µM; to `CCNC(=O)c1ccc(C(=C2CC3CCC(C2)N3Cc2ccsc2)c2ccc(S(N)(=O)=O)cc2)cc1` [Cpd 139], 0.00154 µM.
Still for that read-out and setting: to `CCNC(=O)c1ccc(C(=C2CC3CCC(C2)N3Cc2nccs2)c2ccc(S(N)(=O)=O)cc2)cc1` [Cpd 140] belongs 0.217 µM; to `CCNC(=O)c1ccc(C(=C2CC3CCC(C2)N3Cc2cccs2)c2ccc(S(N)(=O)=O)cc2)cc1` [Cpd 141], 0.00105 µM; to `CCNC(=O)c1ccc(C(=C2CC3CCC(C2)N3CC=C(C)C)c2ccc(S(N)(=O)=O)cc2)cc1` [Cpd 142], 0.00401 µM.
In turn, `CCNC(=O)c1ccc(C(C#N)=C2CC3CCC(C2)N3Cc2ccoc2)cc1` [Cpd 143] came in with a Ki of 0.00103 µM.
The molecule `CCNC(=O)c1ccc(C(=C2CC3CCC(C2)N3Cc2ccoc2)c2nnn[nH]2)cc1` [Cpd 144] yielded a Ki of 0.212 µM.
Molecule `CCNC(=O)c1ccc(C(C#N)=C2CC3CCC(C2)N3)cc1` [Cpd 145] yielded a Ki of 0.945 µM.
With `CCNC(=O)c1ccc(C(=C2CC3CCC(C2)N3Cc2ccco2)c2nnn[nH]2)cc1` [Cpd 146], the affinity, expressed as Ki, was 0.0152 µM.
Still for that read-out and setting: with `CCNC(=O)c1ccc(C(=C2CC3CCC(C2)N3Cc2ccsc2)c2nnn[nH]2)cc1` [Cpd 148] the figure was 0.329 µM; with `CCNC(=O)c1ccc(C(=C2CC3CCC(C2)N3CCc2ccccc2)c2nnn[nH]2)cc1` [Cpd 149], 0.0637 µM; with `CCNC(=O)c1ccc(C(=C2CC3CCC(C2)N3Cc2nccs2)c2nnn[nH]2)cc1` [Cpd 150], 0.0738 µM.
On the same count and under the same terms, to `CCNC(=O)c1ccc(C(=C2CC3CCC(C2)N3)c2nnn[nH]2)cc1` [Cpd 151] belongs 0.00176 µM; to `CCNC(=O)c1ccc(C(=C2CC3CCC(C2)N3Cc2ccoc2)c2cc(C(=O)O)cc([N+](=O)[O-])c2)cc1` [Cpd 152], 0.0122 µM; to `CCNC(=O)c1ccc(C(=C2CC3CCC(C2)N3Cc2ccoc2)c2cccc(CN)c2)cc1` [Cpd 153], 0.0711 µM.
Still for that read-out and setting: to `CCNC(=O)c1ccc(C(=C2CC3CCC(C2)N3Cc2ccccn2)c2cc(C(=O)O)cc([N+](=O)[O-])c2)cc1` [Cpd 154] belongs 0.0913 µM.
`CCNC(=O)c1ccc(C(=C2CC3CCC(C2)N3CC=C(C)C)c2cc(C(=O)O)cc([N+](=O)[O-])c2)cc1` [Cpd 155] gave a Ki of 0.0743 µM.
The same measure, in the same setting: to `CCNC(=O)c1ccc(C(=C2CC3CCC(C2)N3CC=C(C)C)c2cccc(CN)c2)cc1` [Cpd 156] belongs 5.45 µM; to `CCNC(=O)c1ccc(C(=C2CC3CCC(C2)N3CCc2ccccc2)c2cc(C(=O)O)cc([N+](=O)[O-])c2)cc1` [Cpd 157], 0.00857 µM; to `CCNC(=O)c1ccc(C(=C2CC3CCC(C2)N3CCc2ccccc2)c2cccc(CN)c2)cc1` [Cpd 158], 0.012 µM.
`CCNC(=O)c1ccc(C(=C2CC3CCC(C2)N3Cc2nccs2)c2cc(C(=O)O)cc([N+](=O)[O-])c2)cc1` [Cpd 159] showed a Ki of 0.0135 µM.
As for `CCNC(=O)c1ccc(C(=C2CC3CCC(C2)N3Cc2nccs2)c2cccc(CN)c2)cc1` [Cpd 160], the affinity, expressed as Ki, was 7.23 µM.
Same read-out and setting: to `CCNC(=O)c1ccc(C(=C2CC3CCC(C2)N3Cc2ccsc2)c2cc(C(=O)O)cc([N+](=O)[O-])c2)cc1` [Cpd 161] belongs 10 µM.
